Like-named read-outs stand apart in the source and are kept apart here. Blank lines part the entries; values can stand above or below the molecule they belong to.
How the values were obtained:
[1] = tested on: CYP2C8 mRNA; details: primary human hepatocytes; 10 μM (LG268 100 nM); 48 hours
Method: Northern analysis was performed as follows. Primary human hepatocytes were obtained from Clonetics (Walkersville, Md.) and maintained in Hepatocyte Maintenance Medium supplemented with dexamethasone and insulin according to the vendors instructions. Cells were treated with the indicated SXR agonists for 48 hours and total RNA was isolated using the Trizol reagent.
(§1) Northern Blot Analysis—Primary human hepatocytes were obtained from Clonetics (Walkersville, Md.) and cultured according to the vendors instructions. Cells were treated with the indicated compounds for 24 hours and total RNA was isolated using the Trizol reagent.
(§2) After 24 hour exposure to the compounds, total RNA was prepared and analyzed by northern analysis using probes for MDR1 and the GAPDH control.

[2] = tested on: MRP2 mRNA; test: Northern analysis of MRP2 expression in primary human hepatocytes; type: cell-based; details: primary human hepatocytes; 2.5 μM hyperforin, 10 μM rifampicin, 10 μM SR12813; 24 hour
Method: as §1
After 24 hour exposure to the compounds, total RNA was prepared and analyzed by northern analysis using probes for MRP2 and the GAPDH control. […] CV-1 cells were transiently transfected with a Gal4 reporter and a vector expressing Gal4-fused to the ligand binding domain of human SXR (Gal-SXR).
as §2

[3] = tested on: CV-1 cells
[4] = target: T1, mouse CARβ (Mus musculus, UniProt O35627); test: Nuclear receptor specificity transfection assay / LXRE×3-TK-luc reporter with CARβ in CV-1 cells; type: cell-based; details: LXRE×3-TK-luc reporter; 5 μM androstanol or 50 nM ET-743
T1 sequence (O35627 1-358): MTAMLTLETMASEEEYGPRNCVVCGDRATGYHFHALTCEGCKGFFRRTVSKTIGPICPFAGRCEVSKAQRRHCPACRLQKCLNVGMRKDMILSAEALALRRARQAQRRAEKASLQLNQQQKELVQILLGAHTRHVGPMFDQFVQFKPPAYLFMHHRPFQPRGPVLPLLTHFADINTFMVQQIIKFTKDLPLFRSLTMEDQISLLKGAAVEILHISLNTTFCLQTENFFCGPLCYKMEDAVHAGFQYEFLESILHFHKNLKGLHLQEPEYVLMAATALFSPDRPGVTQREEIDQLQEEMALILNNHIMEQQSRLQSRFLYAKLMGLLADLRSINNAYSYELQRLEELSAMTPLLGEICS

[5] = target: T2, human SXR ligand binding domain (Homo sapiens, UniProt O75469); test: Gal-L-SXR (Gal-SXR) Gal4 reporter transient transfection assay in CV-1 cells
T2 sequence (O75469 107-434 limits assumed): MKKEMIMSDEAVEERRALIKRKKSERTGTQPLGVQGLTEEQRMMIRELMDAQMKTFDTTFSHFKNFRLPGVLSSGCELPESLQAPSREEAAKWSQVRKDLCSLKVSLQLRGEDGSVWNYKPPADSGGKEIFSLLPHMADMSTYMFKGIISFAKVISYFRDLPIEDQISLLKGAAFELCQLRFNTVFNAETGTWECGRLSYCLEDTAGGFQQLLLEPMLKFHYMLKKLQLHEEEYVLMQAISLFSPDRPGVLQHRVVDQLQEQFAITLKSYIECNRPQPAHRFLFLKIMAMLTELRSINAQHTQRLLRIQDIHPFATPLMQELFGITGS
Excerpt: Use of a standard model heterologous cell system to reconstitute SXR agonist and antagonist responsiveness allows SXR activity to be monitored in the absence of the metabolic events which may obscure the process being tested. Any suitable heterologous cell system may be used to test the activation of potential or known SXR nuclear receptor ligands, as long as the cells are capable of being transiently transfected with the appropriate DNA which expresses receptors, reporter genes, response elements, and the like. Cells which constitutively express one or more of the necessary genes may be used as well. Cell systems that are suitable for the transient expression of mammalian genes and which are amenable to maintenance in culture are well known to those skilled in the art. […] Suitable reporter gene constructs are well known to skilled workers in the fields of biochemistry and molecular biology. Activity of the reporter gene can be conveniently normalized to the internal control and the data plotted as fold activation relative to untreated cells.
The Gal4 reporter activity was normalized to the internal β-galactosidase control and the data plotted as fold activation relative to untreated cells. All transfections contained the Gal4 reporter and a β-galactosidase expression vector as an internal control.
(§3) Izbicka et al., Ann. Oncol.
Gal-PXR containing the ligand binding domain of mouse PXR (#AF031814) was obtained from Bruce Blumberg.
Transient Transffection Assays—CV-1 cells were grown and transfected as described.

[6] = tested on: cancer cell-lines and human xenografts; details: variety of cancer cell-lines and human xenografts; read-out: IC50s for inhibition of proliferation; cited from earlier work
[7] = tested on: MDR1 mRNA; test: Northern analysis of MDR1 expression in human LS180 cells; type: cell-based; details: 10 μM, 24 hours
Method: as §3, §1, §2

[8] = tested on: CV-1 cells; test: Potential cytotoxic effects at the concentrations and treatment times used; details: at the indicated concentrations and treatment times
[9] = target: SXR coactivator interaction (SRC1, ACTR, GRIP, PBP) (Homo sapiens, UniProt O75469); details: CV-1 cells; 10 μM docetaxel
[10] = target: SXR interaction with nuclear corepressor SMRT (Homo sapiens, UniProt O75469); test: Mammalian two-hybrid SXR-corepressor interaction assay; type: cell-based; details: CV-1 cells; 10 μM
[11] = tested on: LS180 human colon cancer cells; test: [14C]-paclitaxel efflux from pretreated LS180 cells; type: cell-based; details: LS180 cells induced 48 hours with 10 μM paclitaxel, 10 μM docetaxel or 100 nM LG268
Method: Taxane-induced drug efflux was measured using pretreated LS180 human colon cancer cells. The rate of drug efflux was measured. […] Individual data points are the means of triplicate determinations, error bars represent standard deviation and the lines are lines of regression. The slope of each line (rate of efflux) was compared to the slope obtained in the control (untreated) cells using an analysis of covariance. […] The entire experiment was performed three times with similar results. […] The cells were then incubated in media supplemented with 10 μM [^14C]-paclitaxel (4.9 μCi/umol, Moravek Biochemicals, Brea, Calif.) for 15 minutes. The uptake of ^14C-paclitaxel reached maximum levels at 10-12 minutes (data not shown). After 15 minutes, the cells were then rapidly centrifuged through silicone oil to remove all traces of extracellular radioactivity, resuspended in fresh media, and cell counts determined. At multiple time points over the next 10 minutes, triplicate aliquots of the cell suspension (approx. 1×10^5 cells/aliquot) were again centrifuged through silicon oil and the radioactivity in the cell pellet measured by quench-corrected liquid scintillation counting. The rate of [^14C]-paclitaxel efflux was determined as the slope of the [^14C]-paclitaxel versus time plots using all data. The slope for each inducer was compared to the slope obtained in the control (untreated) cells using an analysis of covariance.

SMILES: CCOP(=O)(OCC)C(=Cc1cc(C(C)(C)C)c(O)c(C(C)(C)C)c1)P(=O)(OCC)OCC [SR12813]
CYP2C8 mRNA expression [1]: less than that seen with other SXR agonists
MRP2 mRNA expression [2]: induced expression

SMILES: COc1cc2c(cc1O)CCN[C@]21CS[C@@H]2c3c(OC(C)=O)c(C)c4c(c3[C@H](COC1=O)N1[C@@H]2[C@H]2c3c(cc(C)c(OC)c3O)C[C@@H]([C@@H]1O)N2C)OCO4 [ET-743, ecteinascidin-743]
potential cytotoxic effects [3]: minimal
effect on transcriptional activity of CARβ [4]: no effect
inhibition of SR12813- and paclitaxel-induced activation of Gal-L-SXR ([5]; 50 nM ET-743, 10 μM SR12813 or 10 μM paclitaxel): extremely potent and effective inhibitor
concentrations of maximal inhibition of SXR ([5]; wild-type SXR and Gal-L-SXR, 10 μM SR12813): 25 to 50 nM
IC50 [6]: 1 to 100 nM

activation of Gal-L-SXR [5]: did not effectively activate
coactivator recruitment effect, less than that seen with paclitaxel [9]: 25-40%
effect on SXR-SMRT interaction [10]: little effect
SMILES: CC(=O)O[C@@]12CO[C@@H]1C[C@H](O)[C@@]1(C)C(=O)[C@H](O)C3=C(C)[C@@H](OC(=O)[C@H](O)[C@@H](NC(=O)OC(C)(C)C)c4ccccc4)C[C@@](O)([C@@H](OC(=O)c4ccccc4)[C@H]21)C3(C)C [docetaxel]
MDR1 mRNA expression [7]: did not induce
potential cytotoxic effects [8]: minimal
rate of [14C]-paclitaxel efflux versus untreated cells [11]: did not differ from controls

— patent US20020061836A1, “Methods for altering SXR activation using peptide mimetic HIV protease inhibitor SXR ligands” (priority 2000, published 2002)
